Patent publication US7772228B2, “Method for treatment of bacterial infections with once or twice-weekly administered rifalazil” (priority 1998, dated 2010)
Values after ≈ are worked out from the molar mass of the structure shown. Where two headings read alike, the source gives them in different places.

Experiments:
[1] = in vivo; parameters: species or system rats; details: rat
Description: (§1) In chronic studies with dogs and rats, the no-observed-adverse-effect-level was 1000 mg/kg. […] Significant partitioning of drug-related radioactivity to the formed elements of the blood was observed. […] The urine contained a small amount (5.5%) of radioactivity.
Pharmacokinetic parameters were determined following single and multiple doses in rats and dogs. The doses in rats and dogs were based upon those utilized in the single and multiple-dose toxicology studies. In addition, the absorption, distribution, metabolism, and elimination of rifalazil was studied in rats and dogs. These studies confirmed prior findings that there are species differences vis-a-vis sensitivity to and response to treatment with rifalazil.

[2] = human, in vivo
Description: The third trial (003) was a randomized, rising, double-blind, multiple-dose, placebo-controlled study where subjects were observed during the 14-consecutive days of drug administration in dosages 0, 5 and 25 mg/day and for an additional 14 days without medication. All subjects received the dose within 30 minutes after eating a standardized breakfast. Subjects were divided into two groups. In Group 1, eight subjects were randomized to a daily 25 mg dose of rifalazil and four subjects were randomized to placebo. Numerous adverse reactions began to appear with the 25 mg dose several days after dosing and it became apparent that 25 mg daily dose was not safe. Consequently, after review of the safety data, the study protocol was amended to proceed with a lower dose of 5 mg in group 2. Group 2 consisted of eight subjects randomized to a daily 5 mg dose of rifalazil and four subjects randomized to placebo.
In the clinical trials 001 and 002 all patients were submitted to laboratory testing where the hematology, serum chemistry and urinanalysis were examined prior to dosing, during dosing and at least 14 days following the cessation of drug administration.
(§2) Laboratory testing regimen for 003 and 004 trials was the same as for 001 and 002 trials.
The onset and magnitude of decrease in hematologic parameters appeared to be related to this dose. In order to better visualize the drop and subsequent recovery in these parameters, the data were graphed to synchronize subjects to their last dose.

[3] = test system: Chlamydia pneumoniae strain AR-39; test: Mouse model infected with Chlamydia pneumoniae; type: in vivo; details: intraperitoneal 1 mg/kg QID for three days; five days after cessation
Description: (§3) Sensitivity testing was conducted in cell cultures against Chlamydia pneumoniae strain TW-l 83 using rifalazil, clanthromycin, or azithromycin. […] The in vivo testing of rifalazil used a mouse model infected with Chlamydia pneumoniae strain AR-39. […] All control animals remained infected.

[4] = Clinical signs, general behavior and spontaneous locomotor activity of mice; type: in vivo
Description: Pharmacological studies were undertaken in mice, rats, and dogs, and in isolated guinea pig ileum.
Rifalazil had little effect on the clinical signs or general behavior of mice following oral administration of 100, 300, or 1,000 mg/kg. Rifalazil had no effect on the spontaneous locomotor activity of mice at 100 and 300 mg/kg.

[5] = test system: extracellular M. tuberculosis; test: MIC and MBC against extracellular bacteria; type: cell-based, Mycobacterium tuberculosis
[6] = test system: Helicobacter pylori; parameters: unit of the concentration uncertain; details: time-kill, broth medium, 0.04 (unit uncertain); cited from earlier work
[7] = test system: M. tuberculosis in human macrophages; details: intracellular, cited from earlier work
[8] = test system: M. tuberculosis in human macrophages; test: MIC and MBC against intracellular bacteria in human macrophages; type: cell-based, Mycobacterium tuberculosis
[9] = test system: M. avium; test: Rabbit model of M. avium infection; type: in vivo; details: compared to controls
[10] = test system: M. tuberculosis; details: cited from earlier work
[11] = test system: M. tuberculosis strain Erdman; details: cited from earlier work
[12] = test system: Chlamydia pneumoniae strain TW-l 83; test: Sensitivity testing in cell cultures; type: cell-based
Description: as §3

[13] = Multiple-dose oral toxicology studies in dogs; type: in vivo
Description: as §1
Single-dose and multiple-dose oral toxicology studies were conducted in mice, rats, and dogs. In addition, to maximize systemic exposure, single-dose intravenous (IV) and intraperitoneal (IP) studies were conducted in rats and mice. Four-week and 13-week oral studies in dogs and rats and 26-week oral studies in rats included standard clinical measurements and physical and pathological evaluations.

[14] = test system: M. intracellulare; test: Mice infected with M. intracellulare, CFUs in organs; type: in vivo; details: after four and eight weeks of treatment
[15] = human, in vivo; remark: listed apart in the source
Description: The fourth trial (004) was a also a randomized, rising, double-blind, multiple-dose, placebo-controlled study. In this trial, weekly doses of placebo or rifalazil (25 mg or 50 mg) were administered to the subjects for a total of 4 weeks. All subjects received the dose within 30 minutes after eating a standardized breakfast and were monitored for an additional 14 days after the last dose. Four subjects were randomized to placebo, six subjects to 25 mg rifalazil, and eight subjects to 50 mg rifalazil.
as §2
Results obtained in 004 clinical trial where the healthy volunteers received only one dose a week for four weeks are seen in FIGS. 8-10.

[16] = test system: M. tuberculosis; details: eight weeks treatment; cited from earlier work
[17] = Ref. 1, BACTEC, 30 strains (rif^r and rif^s)
[18] = Ref. 2, BACTEC, 24 strains (rif^r and rif^s)
[19] = Ref. 3, BACTEC, 13 strains (rif^s)
[20] = Ref. 4, BACTEC, 11 strains (rif^r)
[21] = Ref. 5, BACTEC, 20 strains (rif^s)
[22] = thirty clinical isolates, BACTEC

SMILES: CO[C@H]1/C=C/O[C@@]2(C)Oc3c(C)c(O)c4c(=O)c(c5oc6cc(N7CCN(CC(C)C)CC7)cc(O)c6nc-5c4c3C2=O)NC(=O)/C(C)=C\C=C\[C@H](C)[C@H](O)[C@@H](C)[C@@H](O)[C@@H](C)[C@H](OC(C)=O)[C@@H]1C [Rifalazil, 3′-hydroxy-5′-(4-isobutyl-1-piperazinyl)benzoxasinorifamycin]
- CL/F ([1]; female): 3.62 mL/min/kg
- CL/F ([1]; male): 3.07 mL/min/kg
- half-life [1]: 12.5 h
- radioactivity in the urine [1]: 5.5%
- radioactivity recovered in the feces [1]: 84%
- bioavailability ([1]; 3 mg/kg): 30 to 40%
- WBC counts, level of continuous drop [2]: around 2.0 K/CU MM
- nadir of mean WBC after the last dose [2]: 1 to 2 days
- time for hematologic parameters to return to normal after the last dose [2]: ≤ 14 days
- Chlamydia pneumoniae in the lungs [3]: not detectable
- spontaneous locomotor activity ([4]; 1000 mg/kg): increase in spontaneous locomotor activity for one hour
- spontaneous locomotor activity ([4]; 100 and 300 mg/kg): no effect
- clinical signs or general behavior ([4]; oral 100, 300, or 1,000 mg/kg): little effect
- MIC and MBC fold lower than rifampin ([5]; extracellular bacteria): at least 10 fold
- MBCs relative to the MICs ([5]; typical): 2-4 fold
- CFUs at 24 hours lower than the control at zero hours [6]: more than 4.5 log
- MBC ([7]; strain Atencio): 0.008 µg/mL (≈ 0.0085 µM)
- MIC ([7]; strain Atencio): 0.004 µg/mL (≈ 0.00425 µM)
- MBC ([7]; strain Erdman): 0.008 µg/mL (≈ 0.0085 µM)
- MIC ([7]; strain Erdman): 0.008 µg/mL (≈ 0.0085 µM)
- MBC ([7]; strain H37Rv): 0.016 µg/mL (≈ 0.017 µM)
- MIC ([7]; strain H37Rv): 0.004 µg/mL (≈ 0.00425 µM)
- MIC and MBC fold lower than rifampin [8]: at least 10 fold
- bacterial load on organs [9]: reduced the bacterial load on organs compared to controls
- MIC90 [10, 17]: 2.0 µg/mL (≈ 2.13 µM)
- MIC Range [10, 17]: ≦0.002 to 4.0^ μg/mL
- MIC90 [10, 18]: 4.0 µg/mL (≈ 4.25 µM)
- MIC Range [10, 18]: 0.0009 to 4.0 µg/mL
- MIC90 [10, 19]: 0.0156 µg/mL (≈ 0.0166 µM)
- MIC Range [10, 19]: 0.0009 to 0.125 µg/mL
- MIC90 [10, 20]: 4.0 µg/mL (≈ 4.25 µM)
- MIC Range [10, 20]: 0.062 to 4.0 µg/mL
- MIC90 [10, 21]: <0.125 µg/mL
- MIC Range [10, 21]: <0.125 µg/mL
- MIC90 ([10]; Ref. 6, BACTEC, 20 strains (rif^r)): >2.0 µg/mL
- MIC ([10]; reference strain H37Rv, BACTEC): 0.004 µg/mL (≈ 0.00425 µM)
- MIC ([10]; reference strain Kurono, BACTEC): 0.002 µg/mL (≈ 0.00213 µM)
- MIC90 ([10]; rifampin-sensitive Mycobacterium tuberculosis): 0.0156 µg/mL (≈ 0.0166 µM)
- MIC50 50% inhibition [10, 22]: 0.016 µg/mL (≈ 0.017 µM)
- MIC90 90% inhibition [10, 22]: 2.0 µg/mL (≈ 2.13 µM)
- reduction of bacterial load in lungs and spleens, comparison of drugs ([11]; 20 mg/kg, five times per week for four weeks): reduced bacterial loads to a significantly greater extent than the other two drugs
- activity against organisms in lungs, comparison of treatments ([11]; four weeks treatment): most active single-agent
- cell counts in lungs compared to early controls ([11]; four weeks treatment): significantly reduced cell counts in lungs
- cell counts in lungs compared to late controls ([11]; four weeks treatment): reduced cell counts in lungs
- CFUs in the spleen ([11]; rifalazil 20 mg/kg, PZA 150 mg/kg, four weeks): most active single-agent
- fold more potent than clanthromycin [12]: 300 fold
- fold more potent than erythromycin [12]: 1500 fold
- liver weight ([13]; 1,000 mg/kg, four weeks daily dosing): slight increase in liver weight
- no observable adverse effect level ([13]; 13-week study, daily oral): 300 mg/kg
- no-observed-adverse-effect-level ([13]; chronic studies, dogs): 1000 mg/kg
- doses at which hematological changes were noted ([13]; multiple-dose oral, dogs): > 30 mg/kg
- number of CFUs in organs [14]: significantly reduced the number of colony forming units (CFUs) in organs
- time for hematologic parameters to return to normal after the last dose [15]: ≤ 14 days
- gross lung lesions, bacterial loads, survival time versus rifampin [16]: outperformed rifampin in treating the disease
